Assay results taken from paper PMC11532494 (Nature Communications, 2024).
Where “and” joins values, the source holds several entries; their conditions need not be identical. Equal entries are not always repeated. Where two headings read alike, the source gives them in different places.

Tests used:
PsApaH (4) = PsApaH (4) (Pseudomonas sp. M30-35, UniProt A0A1Y0KY79); test: Acetyl-polyamine deacetylase assay; assay type: biochemical; conditions: single samples (replicates)
PA1409 = PA1409 (Pseudomonas aeruginosa, UniProt Q9I3T5); test: Acetyl-polyamine deacetylase assay (positive control); assay type: biochemical; conditions: for acetate released, g/l / acetate released, mM / mM normalized to enzyme concentration: PA1409 (positive control enzyme), single samples (replicates); for A1-A2: absorbance difference between the two time points; for A1-A2 / (A1-A2)-B: sheet Figure 2d; for (A1-A2)-B: absorbance difference minus mean blank
VsHdaH (1b) = assay type: biochemical, Vibrio sp.; conditions: VsHdaH (1b) 3µM; single samples (replicates)
RsPrpH (1b) = test: Acetyl-polyamine deacetylase assay; assay type: biochemical, Rhizorhabdus sp.; conditions: RsPrpH 3µM; single samples (replicates)
RwDmhA (1b) = RwDmhA (1b) (Rhizorhabdus wittichii, UniProt A0A067XIQ6); assay type: biochemical; conditions: RwDmhA (1b) 3µM; single samples (replicates)
KpHdaH (1b) = KpHdaH (1b) (Klebsiella pneumoniae, UniProt A0A377Z5F6); assay type: biochemical; conditions: KpKDAC (1b); single samples (replicates)
BsAcuC (2c) = biological target: T1, BsAcuC (2c) (Bacillus subtilis, UniProt P39067); test: Acetyl-polyamine deacetylase assay; assay type: biochemical; conditions: BsAcuC (2c) 3µM; single samples (replicates)
T1 construct: made in house; host or cells: E. coli BL21 (DE3)
T1 sequence (P39067 1-387): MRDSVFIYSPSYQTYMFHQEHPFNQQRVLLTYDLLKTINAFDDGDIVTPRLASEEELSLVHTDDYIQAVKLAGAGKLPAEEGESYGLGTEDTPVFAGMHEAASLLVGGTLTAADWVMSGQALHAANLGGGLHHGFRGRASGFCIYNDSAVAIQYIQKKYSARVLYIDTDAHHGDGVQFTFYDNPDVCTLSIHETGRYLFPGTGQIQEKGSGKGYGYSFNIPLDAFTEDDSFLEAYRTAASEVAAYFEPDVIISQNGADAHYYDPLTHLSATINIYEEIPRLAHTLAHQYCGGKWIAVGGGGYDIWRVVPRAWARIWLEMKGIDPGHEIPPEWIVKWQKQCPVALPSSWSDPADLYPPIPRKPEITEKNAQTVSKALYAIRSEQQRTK

VcHdaH (5b) = test: Acetyl-polyamine deacetylase assay; assay type: biochemical, Vibrio cholerae; conditions: VcHdaH (5b) 6µM; single samples (replicates)
LcApaH (3) = LcApaH (3) (Legionella cherrii, UniProt A0A0W0SGS1); assay type: biochemical
LpApaH (3) = LpApaH (3) (Legionella pneumophila, UniProt A0A2S6EWV0); assay type: biochemical
[1] = LcApaH (3), single samples (replicates)

Sequence of KpHdaH (1b) (A0A377Z5F6 1-371): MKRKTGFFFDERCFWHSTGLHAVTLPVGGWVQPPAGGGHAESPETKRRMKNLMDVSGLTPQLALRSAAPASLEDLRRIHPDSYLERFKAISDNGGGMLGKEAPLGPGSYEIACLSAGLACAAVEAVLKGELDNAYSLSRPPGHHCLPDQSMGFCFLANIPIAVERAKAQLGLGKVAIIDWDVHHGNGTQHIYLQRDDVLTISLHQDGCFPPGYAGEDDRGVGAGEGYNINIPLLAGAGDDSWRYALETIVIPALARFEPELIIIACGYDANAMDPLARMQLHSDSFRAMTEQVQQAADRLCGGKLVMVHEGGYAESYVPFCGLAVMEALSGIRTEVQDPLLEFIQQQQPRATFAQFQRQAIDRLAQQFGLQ
Sequence of LpApaH (3) (A0A2S6EWV0 1-426): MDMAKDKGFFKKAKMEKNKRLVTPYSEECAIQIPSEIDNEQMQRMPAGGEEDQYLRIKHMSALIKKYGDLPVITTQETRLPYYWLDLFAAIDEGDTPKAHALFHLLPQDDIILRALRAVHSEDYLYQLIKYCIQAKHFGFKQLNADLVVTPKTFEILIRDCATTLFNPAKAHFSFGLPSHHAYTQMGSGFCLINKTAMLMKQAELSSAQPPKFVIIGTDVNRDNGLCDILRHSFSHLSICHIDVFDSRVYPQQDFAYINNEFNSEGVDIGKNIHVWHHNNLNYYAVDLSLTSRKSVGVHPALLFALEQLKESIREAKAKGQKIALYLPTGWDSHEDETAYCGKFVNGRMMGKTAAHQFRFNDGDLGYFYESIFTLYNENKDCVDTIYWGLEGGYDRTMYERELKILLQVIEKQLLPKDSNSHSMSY
Sequence of PsApaH (4) (A0A1Y0KY79 1-342 limits assumed): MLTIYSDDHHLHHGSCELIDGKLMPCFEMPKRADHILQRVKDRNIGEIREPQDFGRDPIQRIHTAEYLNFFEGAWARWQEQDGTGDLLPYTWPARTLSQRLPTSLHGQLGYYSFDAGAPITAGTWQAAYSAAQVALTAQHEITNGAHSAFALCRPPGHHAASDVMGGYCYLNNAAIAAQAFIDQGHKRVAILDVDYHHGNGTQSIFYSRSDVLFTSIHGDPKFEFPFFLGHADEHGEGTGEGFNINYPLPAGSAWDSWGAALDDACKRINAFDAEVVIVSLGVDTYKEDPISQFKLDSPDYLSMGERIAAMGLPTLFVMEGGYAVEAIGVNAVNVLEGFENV
Sequence of PA1409 (Q9I3T5 whole entry): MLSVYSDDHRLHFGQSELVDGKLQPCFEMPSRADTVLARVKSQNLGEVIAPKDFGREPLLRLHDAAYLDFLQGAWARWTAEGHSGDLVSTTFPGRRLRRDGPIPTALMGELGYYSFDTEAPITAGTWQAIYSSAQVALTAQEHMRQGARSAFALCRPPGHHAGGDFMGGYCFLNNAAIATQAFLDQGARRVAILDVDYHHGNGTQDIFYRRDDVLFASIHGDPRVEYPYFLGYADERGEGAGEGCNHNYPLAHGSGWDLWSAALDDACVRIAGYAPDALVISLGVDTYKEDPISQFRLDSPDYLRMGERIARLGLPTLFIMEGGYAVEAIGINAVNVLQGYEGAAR
Sequence of RwDmhA (1b) (A0A067XIQ6 1-369): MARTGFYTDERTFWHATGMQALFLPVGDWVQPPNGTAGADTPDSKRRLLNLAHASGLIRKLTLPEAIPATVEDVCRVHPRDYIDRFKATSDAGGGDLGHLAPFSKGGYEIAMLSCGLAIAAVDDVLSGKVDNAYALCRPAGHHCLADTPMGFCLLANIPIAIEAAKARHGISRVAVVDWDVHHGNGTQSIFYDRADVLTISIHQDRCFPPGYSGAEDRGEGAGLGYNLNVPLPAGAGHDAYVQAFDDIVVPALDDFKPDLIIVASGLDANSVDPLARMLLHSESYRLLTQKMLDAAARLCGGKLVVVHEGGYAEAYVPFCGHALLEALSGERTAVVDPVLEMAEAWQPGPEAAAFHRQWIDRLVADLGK
Sequence of LcApaH (3) (A0A0W0SGS1 1-425): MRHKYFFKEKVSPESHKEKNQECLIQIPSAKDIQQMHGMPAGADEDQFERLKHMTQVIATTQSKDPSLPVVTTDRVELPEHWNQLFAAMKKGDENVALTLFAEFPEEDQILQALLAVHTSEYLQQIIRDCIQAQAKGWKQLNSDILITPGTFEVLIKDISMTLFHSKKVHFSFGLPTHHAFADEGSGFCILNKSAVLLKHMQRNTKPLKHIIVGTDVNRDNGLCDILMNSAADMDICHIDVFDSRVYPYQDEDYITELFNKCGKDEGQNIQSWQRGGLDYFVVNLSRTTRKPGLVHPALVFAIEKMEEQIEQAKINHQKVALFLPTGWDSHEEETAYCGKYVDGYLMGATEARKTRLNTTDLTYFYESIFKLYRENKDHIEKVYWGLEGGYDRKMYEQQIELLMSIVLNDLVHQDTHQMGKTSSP

| Compound | acetate released, g/l (VsHdaH (1b)) | acetate released, mM (VsHdaH (1b)) | mM normalized to enzyme concentration (VsHdaH (1b)) | acetate released, g/l (RsPrpH (1b)) | acetate released, mM (RsPrpH (1b)) | mM normalized to enzyme concentration (RsPrpH (1b)) | acetate released, g/l (RwDmhA (1b)) | acetate released, mM (RwDmhA (1b)) | mM normalized to enzyme concentration (RwDmhA (1b)) | acetate released, g/l (KpHdaH (1b)) | acetate released, mM (KpHdaH (1b)) | mM normalized to enzyme concentration (KpHdaH (1b)) | acetate released, g/l (BsAcuC (2c)) | acetate released, mM (BsAcuC (2c)) | mM normalized to enzyme concentration (BsAcuC (2c)) | acetate released, g/l (VcHdaH (5b)) | acetate released, mM (VcHdaH (5b)) | mM normalized to enzyme concentration (VcHdaH (5b)) | acetate released, g/l (LpApaH (3)) | acetate released, mM (LpApaH (3)) | other results |
| --- | --- | --- | --- | --- | --- | --- | --- | --- | --- | --- | --- | --- | --- | --- | --- | --- | --- | --- | --- | --- | --- |
| CC(=O)NCCCCCN [N1-acetyl-cadaverine] | 0.004047 g/L and 0.005091 g/L and 0.00483 g/L | 0.06739 mM and 0.08478 mM and 0.08044 mM | 0.02246 mM and 0.02826 mM and 0.02681 mM | 0.02441 g/L and 0.02154 g/L and 0.02285 g/L | 0.4065 mM and 0.3587 mM and 0.3804 mM | 0.1355 mM and 0.1196 mM and 0.1268 mM | 0.01449 g/L and 0.01841 g/L and 0.0252 g/L | 0.2413 mM and 0.3065 mM and 0.4196 mM | 0.08044 mM and 0.1022 mM and 0.1399 mM | 0.005 g/L and 0.003 g/L and 0.002 g/L | 0.0755 mM and 0.044 mM and 0.0346 mM | 0.0151 mM and 0.0088 mM and 0.00692 mM | 0.0001305 g/L and -0.0003916 g/L and -0.01371 g/L | 0.002174 mM and -0.006522 mM and -0.2283 mM | 0.0007246 mM and -0.002174 mM and -0.07609 mM | 0.0009138 g/L and -0.0001305 g/L and 0.0003916 g/L | 0.01522 mM and -0.002174 mM and 0.006522 mM | 0.002536 mM and -0.0003623 mM and 0.001087 mM | 0.0236 g/L and 0.04 g/L | 0.39 mM and 0.70 mM | acetate released, g/l (PsApaH (4)): 0.08943 g/L and 0.09204 g/L and 0.09674 g/L; acetate released, mM (PsApaH (4)): 1.489 mM and 1.533 mM and 1.611 mM; acetate released, g/l (PA1409): 0.1346 g/L; acetate released, mM (PA1409): 2.242 mM; mM normalized to enzyme concentration (PA1409): 22.4156 mM; A1-A2 (PA1409): 0.543; (A1-A2)-B (PA1409): 0.5015; acetate released, g/l (LcApaH (3); [1]): 0.0133 g/L and 0.011 g/L; acetate released, mM (LcApaH (3); [1]): 0.22 mM and 0.18 mM; mM normalized to enzyme concentration (LcApaH (3); [1]): 0.22 mM and 0.18 mM; mM normalized to enzyme concentration (LpApaH (3)): 0.20 mM and 0.35 mM |
| CC(=O)NCCCNCCCCNCCCNC(C)=O [N1/N12 diacetyl-spermine] | 0.00248 g/L and 0.0003916 g/L | 0.0413 mM and 0.006522 mM | 0.01377 mM and 0.002174 mM and 0.003623 mM | 0.002219 g/L and 0.001175 g/L | 0.03696 mM and 0.01957 mM | 0.01232 mM and 0.006522 mM | 0.001697 g/L and 0.004569 g/L | 0.02826 mM and 0.07609 mM | 0.00942 mM and 0.02536 mM | 0.007868 g/L and 0.006091 g/L and 0.003807 g/L | 0.131 mM and 0.1014 mM and 0.0634 mM | 0.0262 mM and 0.02029 mM and 0.01268 mM | 0.003525 g/L and 0.003264 g/L and -0.001436 g/L | 0.0587 mM and 0.05435 mM and -0.02391 mM | 0.01957 mM and 0.01812 mM and -0.007971 mM | 0.001436 g/L and 0.0001305 g/L and 0.0006527 g/L | 0.02391 mM and 0.002174 mM and 0.01087 mM | 0.003986 mM and 0.0003623 mM and 0.001812 mM | 0.003439 g/L and 0.00291 g/L | 0.05727 mM and 0.04846 mM | acetate released, g/l (PA1409): 0.2048 g/L and 0.2032 g/L; acetate released, mM (PA1409): 3.41 mM and 3.383 mM; mM normalized to enzyme concentration (PA1409): 34.0974 mM and 33.8331 mM; acetate released, g/l (LcApaH (3)): 0.00344 g/L; acetate released, mM (LcApaH (3)): 0.06 mM; mM normalized to enzyme concentration (LcApaH (3)): 0.06 mM; mM normalized to enzyme concentration (LpApaH (3)): 0.02863 mM and 0.02423 mM |
| CC(=O)NCCCCNCCCN [N8-acetyl-spermidine] | 0.002742 g/L and 0.003003 g/L | 0.04565 mM and 0.05 mM | 0.01522 mM and 0.01667 mM and 0.02536 mM | 0.01005 g/L and 0.01371 g/L and 0.01762 g/L | 0.1674 mM and 0.2283 mM and 0.2935 mM | 0.0558 mM and 0.07609 mM and 0.09783 mM | 0.005875 g/L and 0.0006527 g/L | 0.09783 mM and 0.01087 mM | 0.02246 mM and 0.03261 mM and 0.003623 mM | -0.006957 g/L and 0.01217 g/L and 0.008116 g/L | -0.1158 mM and 0.2027 mM and 0.1352 mM | -0.02317 mM and 0.04055 mM and 0.02703 mM | 0.006919 g/L and 0.003003 g/L and 0.003525 g/L | 0.1152 mM and 0.05 mM and 0.0587 mM | 0.03841 mM and 0.01667 mM and 0.01957 mM | 0.002219 g/L and 0.004047 g/L and 0.004569 g/L | 0.03696 mM and 0.06739 mM and 0.07609 mM | 0.006159 mM and 0.01123 mM and 0.01268 mM | 0.00515 g/L and 0.00674 g/L | 0.09 mM and 0.11 mM | acetate released, g/l (PsApaH (4)): 0.04138 g/L and 0.04164 g/L and 0.04191 g/L; acetate released, mM (PsApaH (4)): 0.6891 mM and 0.6935 mM and 0.6978 mM; A1-A2 (PA1409): 0.581 and 0.564; (A1-A2)-B (PA1409): 0.5395 and 0.5225; acetate released, g/l (LcApaH (3)): 0.008058 g/L and 0.009115 g/L; acetate released, mM (LcApaH (3)): 0.1342 mM and 0.1518 mM; mM normalized to enzyme concentration (LcApaH (3)): 0.1342 mM and 0.1518 mM; mM normalized to enzyme concentration (LpApaH (3)): 0.0429 mM and 0.0561 mM |
